In patent US12605412B2, “Microbial compositions for improving the efficacy of anticancer treatments based on immune checkpoint inhibitors and/or tyrosine kinase inhibitors and markers of responsiveness to such treatments” (INSTITUT GUSTAVE ROUSSY, priority 2019, dated 2026):

Test system: advanced renal cell carcinoma
Experiment: Clinical outcome of nivolumab (anti-PD-1) in RCC patients of the NIVOREN trial, stratified by antibiotic use
Format: in vivo, human
Method: The patients were included from Gustave Roussy Cancer Campus, France. Inclusion criteria were patients with stage IV clear cell or non-clear cell RCC histology and disease progression during or after >1 prior anti-angiogenic therapy regimens who received nivolumab intravenously (i.v.) 3 mg/kg every 2 weeks until disease progression or intolerable toxicity in the NIVOREN GETUG-AFU 26 Phase II trial (EudraCT: 2015-004117-24) (Albiges et al., 2018). Computer tomography (CT) scans were performed at baseline and every 8 to 12 weeks for the first year and then every 12 to 15 weeks until disease progression. Tumor response was assessed using the Response Evaluation Criteria in Solid Tumors version 1.1 (RECIST v1.1) (Eisenhauer et al., 2009). […] We evaluated objective response rate defined as the number of patients with a complete response and a partial response. The best overall response was defined as the investigator-assessed best response (complete response, partial response, stable disease, or progressive disease) from the start date of nivolumab to objectively documented disease progression or subsequent therapy, whichever occurred first. […] Forty patients were analyzed in addition to 60 non-small cell lung cancer patients in the Science 2018 paper (Routy et al., 2018). […] For the first time, RCC were analyzed as a single and independent cohort in this paper. […]

Q: How did the “objective response rate (ORR)” value (RCC patients on nivolumab, noATB subgroup, RECIST v1.1) turn out when nivolumab [ICB] was run?
A: 28%

Q: And the primary resistance (no ATB subgroup during ICB therapy)?
A: 33%
